Source: patent US8168592B2 (Amgen Inc., priority 2005, dated 2012)
“Also recorded” adds a separate entry of the source. Each block holds one molecule with its values, some of them ahead of it. PEG = not defined here

Legend:
CGRP1 receptor [1] = biological target: T1, CGRP1 receptor (Homo sapiens, UniProt O60894+Q16602); experiment: in vitro CGRP1 receptor mediated cAMP assay in SK-N-MC cells; type: cell-based; conditions: cAMP assay
T1 construct: SK-N-MC cells express CRLR and RAMP1, which form CGRP1 receptor; endogenous in cells; host or cells: SK-N-MC human neuroblastoma cells
Procedure, shortened: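 Human SK-N-MC neuroblastoma cells, which endogenously express CRLR/RAMP1, were plated two days before assay and preincubated in plasma-free medium for 15 minutes at room temperature. Cells were then lysed for 30 minutes at 37° C, and cAMP in the lysates was quantified by competitive cAMP-AP chemiluminescent ELISA.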

[2] = mouse
Description: Peptide samples at 2 mg/ml in PBS were spiked with 5% mouse plasma and analyzed by sandwich ELISA (as described in Example 3 herein above) over 48 hours at room temperature. Peptide integrity was determined by sandwich ELISA requiring intact peptide termini.

CGRP1 receptor [3] = biological target: T2, CGRP1 receptor (Rattus norvegicus, UniProt Q63118+Q9JJ74); experiment: laser Doppler blood flowmetry assay (hαCGRP-induced skin blood flow); type: in vivo; conditions: i.v., pre-treatment 5 minutes
T2 construct: from tissue; host or cells: living anaesthetised rat, abdominal skin
Description: Methods. An automated laser Doppler blood flowmetry device is used (MoorLDI®; Moor Instrument, Devon, UK). The device was turned on prior to the start of experiments and allowed to warm up for 20 minutes. Blood flow data (in FLUX) were read from software records (see below).
For each rat, the experimental procedure was performed within a single day and was each rat was sacrificed on the same day immediately after the experiment was over. On an experiment day, each rat was weighed and administered 1 ml/kg (intramuscular injection in right leg) of an anesthetic cocktail consisting of Ketamine, Xylazine and PBS (5:3:2). […] A small dot was placed near the center of the abdomen using a marker. The animal was then ready for the experiment.
Approximately 20 min after the injection of the anesthetic cocktail, baseline blood flow readings were collected for each animal. Each rat was placed under the laser Doppler scanning device, matching the laser with the marker dot on the abdomen. Using the device's software package, the device was activated and the surface of the abdomen was scanned for 1 min with the laser. The scan area was 4 cm×4 cm. […]
In some cases, plasma IC50 values were calculated by performing least squares linear regression on log plasma concentration values (nM) vs. % change in blood flow values calculated for individual rats.

100% human plasma = conditions: room temperature, up to 4 hour
[4] = 100% Cynomolgus monkey plasma; conditions: room temperature, up to 4 hour
[5] = monkey plasma during 30 minutes of intravenous infusion; conditions: Cynomolgus monkeys (Macaca fascicularis), up to 20 min during the infusion
rat CGRP1 receptor = rat CGRP1 receptor (Rattus norvegicus, UniProt Q63118+Q9JJ74); experiment: in vitro functional potency against the rat ortholog of the CGRP1 receptor; type: cell-based
From the text: Results and Conclusions. […] This was reflected by an apparently similar rightward shift in potency in vivo.

[6] = in vitro metabolic identification in 100% monkey plasma, LC-MS/MS; type: in vitro ADME; conditions: 100% Cynomolgus monkey plasma, 4 hours
From the text: Extracted samples were collected for LC-MS/MS analysis.
(Also, see Example 7 herein below for comparison with in vivo metabolic identification.)

[7] = in vivo metabolic identification in monkey plasma during intravenous infusion; set-up: species or system Cynomolgus monkey; conditions: 20 min during intravenous infusion
From the text: Monkey pharmacokinetic studies.
Samples were taken as described above. After thawing, each 100-11 plasma sample was extracted by solid phase extraction. Extracted samples were collected for LC-MS/MS analysis.

[8] = solubility in aqueous conjugation buffers; type: physicochemical
Description: Co-solvent mediated conjugation of vehicle to CGRP peptide antagonists. […] In an attempt to better solubilize these less soluble peptides during the conjugation reaction, and thereby improve conjugate yields, a variety of alcohol co-solvents were tested in the conjugation reaction.

[9] = rat plasma (10% rat plasma in the legend of FIG. 2); conditions: room temperature, up to 1 hour

T2 sequence (Q63118 24-464): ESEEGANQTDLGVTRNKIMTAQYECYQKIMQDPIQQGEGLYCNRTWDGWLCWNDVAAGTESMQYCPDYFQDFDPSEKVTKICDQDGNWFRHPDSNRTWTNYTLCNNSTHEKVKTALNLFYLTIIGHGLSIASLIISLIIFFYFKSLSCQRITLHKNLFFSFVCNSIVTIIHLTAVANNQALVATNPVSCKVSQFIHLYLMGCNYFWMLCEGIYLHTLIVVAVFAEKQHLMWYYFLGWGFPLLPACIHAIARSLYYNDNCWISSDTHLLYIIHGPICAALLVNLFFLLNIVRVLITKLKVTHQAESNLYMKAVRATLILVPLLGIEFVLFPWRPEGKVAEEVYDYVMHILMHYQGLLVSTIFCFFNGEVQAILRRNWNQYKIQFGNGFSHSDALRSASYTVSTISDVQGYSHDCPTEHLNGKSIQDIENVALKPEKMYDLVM
T2 sequence (Q9JJ74 27-148): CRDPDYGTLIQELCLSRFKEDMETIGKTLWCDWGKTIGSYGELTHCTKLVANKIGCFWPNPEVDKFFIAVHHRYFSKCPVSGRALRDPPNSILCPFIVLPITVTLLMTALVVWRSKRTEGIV
T1 sequence (Q16602 23-461): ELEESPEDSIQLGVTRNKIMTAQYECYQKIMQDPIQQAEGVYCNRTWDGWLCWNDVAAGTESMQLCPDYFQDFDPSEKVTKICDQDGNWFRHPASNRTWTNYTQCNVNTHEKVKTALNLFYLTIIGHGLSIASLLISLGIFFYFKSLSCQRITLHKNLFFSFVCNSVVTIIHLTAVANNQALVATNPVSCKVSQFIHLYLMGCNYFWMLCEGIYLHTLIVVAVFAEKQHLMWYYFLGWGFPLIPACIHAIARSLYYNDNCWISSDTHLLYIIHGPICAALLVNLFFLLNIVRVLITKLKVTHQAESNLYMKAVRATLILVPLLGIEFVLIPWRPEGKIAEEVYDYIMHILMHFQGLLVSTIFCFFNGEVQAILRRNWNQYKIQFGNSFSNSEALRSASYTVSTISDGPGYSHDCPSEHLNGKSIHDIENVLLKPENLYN
T1 sequence (O60894 27-148): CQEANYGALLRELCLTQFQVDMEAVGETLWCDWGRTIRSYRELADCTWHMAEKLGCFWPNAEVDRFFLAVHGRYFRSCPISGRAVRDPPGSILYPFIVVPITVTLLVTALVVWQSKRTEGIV
Sequence of rat CGRP1 receptor (Q63118 24-464): as the sequence (Q63118 24-464) above
Sequence of rat CGRP1 receptor (Q9JJ74 27-148): as the sequence (Q9JJ74 27-148) above

improved potency relative to native CGRP(8-37) (SEQ ID NO:1) (CGRP1 receptor [1]): about 12 fold | loss in antagonist activity on PEGylation relative to the unconjugated parent peptide (CGRP1 receptor [1]): three
Molecule: SEQ ID NO:15 (Ac-WVTHRLAGLLSRSGGVVRK(PEG)NFVPTDVGPFAF-NH2; reading uncertain)
half-life longer than the non-PEGylated parent peptide [2]: more than 9 fold

Efficacy observed (%) (at highest dose tested) (CGRP1 receptor [3]; 0.6 mg/kg): 100%
Molecule: CC(=O)N[C@@H](Cc1c[nH]c2ccccc12)C(=O)N[C@H](C(=O)N[C@H](C(=O)N[C@@H](Cc1c[nH]cn1)C(=O)N[C@@H](CCCNC(=N)N)C(=O)N[C@@H](CC(C)C)C(=O)N[C@@H](C)C(=O)NCC(=O)N[C@@H](CC(C)C)C(=O)N[C@@H](CC(C)C)C(=O)N[C@@H](CO)C(=O)N[C@@H](CCCNC(=N)N)C(=O)N[C@@H](CO)C(=O)NCC(=O)NCC(=O)N[C@H](C(=O)N[C@H](C(=O)N[C@@H](CCCNC(=N)N)C(=O)N[C@@H](CCCCN)C(=O)N[C@@H](CC(N)=O)C(=O)N[C@@H](Cc1ccccc1)C(=O)N[C@H](C(=O)N1CCC[C@H]1C(=O)N[C@H](C(=O)N[C@@H](CC(=O)O)C(=O)N[C@H](C(=O)NCC(=O)N1CCC[C@H]1C(=O)N[C@@H](Cc1ccccc1)C(=O)N[C@@H](C)C(=O)N[C@@H](Cc1ccccc1)C(N)=O)C(C)C)[C@@H](C)O)C(C)C)C(C)C)C(C)C)[C@@H](C)O)C(C)C [Compound 808]

fragment found (100% human plasma): W7-hR24, major | fragment found [4]: W7-K25, major
Molecule: Ac-WVTH[Cit]LAGLLS[Cit]SGGVV[hArg]KNFVPTDVG[Oic]FAF-NH2
fragment found [5]: W7-T9, 20 min during the infusion; also recorded: T30-A36, 20 min during the infusion; also recorded: W7-N26, 20 min during the infusion; also recorded: T30-F37, 20 min during the infusion; also recorded: W7-hR24, 20 min during the infusion

rightward shift of in vitro potency compared with SEQ ID NO:31 (rat CGRP1 receptor): approximately 9 fold
Molecule: SEQ ID NO:791 (WVTHXLAGLLSXSGGVVRKNFVPTDVGPFAF; not fully specified; CGRP peptide; MOD_RES (1)..(1): …ON; MISC_FEATURE (5)..(5): xaa=citrulline; MISC_FEATURE (12)..(12): xaa=citrulline; MISC_FEATURE (19)..(19): PEGylated; MOD_RES (31)..(31): AMIDATION)

major degradation product [6]: fragment W7-K25 | solubility in words [8]: relatively insoluble
Molecule: CC(=O)N[C@@H](Cc1c[nH]c2ccccc12)C(=O)N[C@H](C(=O)N[C@H](C(=O)N[C@@H](Cc1c[nH]cn1)C(=O)N[C@@H](CCCNC(N)=O)C(=O)N[C@@H](CC(C)C)C(=O)N[C@@H](C)C(=O)NCC(=O)N[C@@H](CC(C)C)C(=O)N[C@@H](CC(C)C)C(=O)N[C@@H](CO)C(=O)N[C@@H](CCCNC(N)=O)C(=O)N[C@@H](CO)C(=O)NCC(=O)NCC(=O)N[C@H](C(=O)N[C@H](C(=O)N[C@@H](CCCCNC(=N)N)C(=O)N[C@@H](CCCCN)C(=O)N[C@@H](CC(N)=O)C(=O)N[C@@H](Cc1ccccc1)C(=O)N[C@H](C(=O)N1CCC[C@H]1C(=O)N[C@H](C(=O)N[C@@H](CC(=O)O)C(=O)N[C@H](C(=O)NCC(=O)N1[C@H](C(=O)N[C@@H](Cc2ccccc2)C(=O)N[C@@H](C)C(=O)N[C@@H](Cc2ccccc2)C(N)=O)C[C@@H]2CCCC[C@@H]21)C(C)C)[C@@H](C)O)C(C)C)C(C)C)C(C)C)[C@@H](C)O)C(C)C [SEQ ID NO:658]
degradation products in vivo [7]: fragments W7-T9, T30-A36, W7-N26, T30-F37 and W7-hR24

Molecule: Ac-WVTHRLAGLLSRSGGVVRKNFVPTDVGPFAF-NH2
cleaved bond [9]: L16-S17, major; also recorded: S17-R18, major; also recorded: R18-S19, major

solubility in words [8]: relatively insoluble
Molecule: CC(=O)N[C@@H](Cc1c[nH]c2ccccc12)C(=O)N[C@H](C(=O)N[C@H](C(=O)N[C@@H](Cc1cnc[nH]1)C(=O)N[C@@H](CCCNC(N)=O)C(=O)N[C@@H](CC(C)C)C(=O)N[C@@H](C)C(=O)NCC(=O)N[C@@H](CC(C)C)C(=O)N[C@@H](CC(C)C)C(=O)N[C@@H](CO)C(=O)N[C@@H](CCCNC(N)=O)C(=O)N[C@@H](CO)C(=O)NCC(=O)NCC(=O)N[C@H](C(=O)N[C@H](C(=O)N[C@@H](CCCCNC(=N)N)C(=O)N[C@@H](CCCCN)C(=O)N[C@@H](CC(N)=O)C(=O)N[C@@H](Cc1ccccc1)C(=O)N[C@H](C(=O)N1CCC[C@H]1C(=O)N[C@H](C(=O)N[C@@H](CC(=O)O)C(=O)N[C@H](C(=O)NCC(=O)N1CCC[C@H]1C(=O)N[C@@H](Cc1ccccc1)C(=O)N[C@@H](C)C(=O)N[C@@H](Cc1ccccc1)C(N)=O)C(C)C)[C@@H](C)O)C(C)C)C(C)C)C(C)C)[C@@H](C)O)C(C)C [SEQ ID NO:739]

solubility in words [8]: relatively soluble
Molecule: CC(=O)N[C@@H](Cc1c[nH]c2ccccc12)C(=O)N[C@H](C(=O)N[C@H](C(=O)N[C@@H](Cc1cnc[nH]1)C(=O)N[C@@H](CCCN=C(N)N)C(=O)N[C@@H](CC(C)C)C(=O)N[C@@H](C)C(=O)NCC(=O)N[C@@H](CC(C)C)C(=O)N[C@@H](CC(C)C)C(=O)N[C@@H](CO)C(=O)N[C@@H](CCCN=C(N)N)C(=O)N[C@@H](CO)C(=O)NCC(=O)NCC(=O)N[C@H](C(=O)N[C@H](C(=O)N[C@@H](CCCN=C(N)N)C(=O)N[C@@H](CCCCN)C(=O)N[C@@H](CC(N)=O)C(=O)N[C@@H](Cc1ccccc1)C(=O)N[C@H](C(=O)N1CCC[C@H]1C(=O)N[C@H](C(=O)N[C@@H](CC(=O)O)C(=O)N[C@H](C(=O)NCC(=O)N1CCC[C@H]1C(=O)N[C@@H](Cc1ccccc1)C(=O)N[C@@H](C)C(=O)N[C@@H](Cc1ccccc1)C(N)=O)C(C)C)[C@@H](C)O)C(C)C)C(C)C)C(C)C)[C@@H](C)O)C(C)C [SEQ. ID NO: 7]

Efficacy observed (%) (at highest dose tested) (CGRP1 receptor [3]; 6 mg/kg): 100%
Molecule: CC(=O)N[C@@H](Cc1c[nH]c2ccccc12)C(=O)N[C@H](C(=O)N[C@H](C(=O)N[C@@H](Cc1c[nH]cn1)C(=O)N[C@@H](CCCNC(N)=O)C(=O)N[C@@H](CC(C)C)C(=O)N[C@@H](C)C(=O)NCC(=O)N[C@@H](CC(C)C)C(=O)N[C@@H](CC(C)C)C(=O)N[C@@H](CO)C(=O)N[C@@H](CCCNC(N)=O)C(=O)N[C@@H](CO)C(=O)NCC(=O)NCC(=O)N[C@H](C(=O)N[C@H](C(=O)N[C@@H](CCCCNC(=N)N)C(=O)N[C@@H](CCCCN)C(=O)N[C@@H](CC(N)=O)C(=O)N[C@@H](Cc1ccccc1)C(=O)N[C@H](C(=O)N1CCC[C@H]1C(=O)N[C@H](C(=O)N[C@@H](CC(=O)O)C(=O)N[C@H](C(=O)NCC(=O)N1CCC[C@H]1C(=O)N[C@@H](Cc1ccccc1)C(=O)N[C@@H](C)C(=O)N[C@@H](Cc1ccccc1)C(N)=O)C(C)C)[C@@H](C)O)C(C)C)C(C)C)C(C)C)[C@@H](C)O)C(C)C [Compound 739]
